# According to ChEMBL document CHEMBL5137082, “Discovery of a Novel Vascular Disrupting Agent Inhibiting Tubulin Polymerization and HDACs with Potent Antitumor Effects” (J Med Chem, 2022):
# pIC50: −log10 of the molar value. Calls of active or inactive are those of the source. The calls are words filed in the database; no cut-off is given here.
# Key:
# [1] = system: HepG2; test: Induction of apoptosis in human HepG2 cells assessed as viable cells at 30 nM incubated for 48 hrs by Annexin-V/PI-staining based flow cytometry (reference value: 91.44 +/- 0.74%); type: functional; conditions: read-out: Activity
# [2] = system: HepG2; test: Induction of apoptosis in human HepG2 cells assessed as necrotic cells at 7.5 nM incubated for 48 hrs by Annexin-V/PI-staining based flow cytometry (reference value: 1.43 +/- 0.26%); type: functional
# [3] = system: PC-3; test: Induction of apoptosis in human PC-3 cells assessed as mitochondrial membrane potential loss by measuring early apoptotic cells at 30 nM incubated for 48 hrs by JC1 staining based flow cytometry analysis (reference value: 6.50 +/- 0.17%); type: functional
# [4] = system: HepG2; test: Induction of apoptosis in human HepG2 cells assessed as viable cells at 15 nM incubated for 48 hrs by Annexin-V/PI-staining based flow cytometry (reference value: 91.44 +/- 0.74%); type: functional; conditions: read-out: Activity
# [5] = Toxicity in ICR mouse allografted with mouse H22 cells assessed as effect on body weight at 20 mg/kg, iv administered qd measured after 21 days; type: organism-based; conditions: in vivo, 504 h, time 21 day
# [6] = system: PC-3; test: Induction of apoptosis in human PC-3 cells assessed as mitochondrial membrane potential loss by measuring decrease in red fluorescence at 15 nM incubated for 48 hrs by JC1 staining based flow cytometry analysis (reference value: 93.48 +/- 0.15%); type: functional; parameters: scale not given: the % may be the effect or the level left
# [7] = system: MDA-MB-231; test: Inhibition of cell migration in human MDA-MB-231 cells measured after 48 hrs by crystal violet staining based transwell assay; type: functional; conditions: dose 7.5-30 nM, DDE = dose-dependent effect
# [8] = target: T1, Tubulin (Homo sapiens) (UniProt P68371+Q9H4B7+P0DPH7+P68366+Q13509+Q71U36+P04350+Q3ZCM7+P07437+P68363+Q9BQE3+Q6PEY2+Q13885+Q9BVA1+Q9BUF5); test: Inhibition of [3H]Colchicine binding to tubulin (unknown origin) at 5 uM measured after 2 hrs by scintillation counting method relative to control; type: protein-complex assay
# [9] = Antiproliferative activity against human HFL1 cells assessed as inhibition of cell growth measured after 72 hrs by MTT assay; type: toxicity, cell-based
# [10] = system: HepG2; test: Antiproliferative activity against human HepG2 cells assessed as inhibition of cell growth measured after 72 hrs by MTT assay; type: functional, cell-based; conditions: HepG2, 72 h
# [11] = Toxicity in ICR mouse allografted with mouse H22 cells assessed as pathological changes in lung at 20 mg/kg, iv administered qd measured after 21 days by H and E staining based analysis; type: organism-based; conditions: in vivo, 504 h, time 21 day
# [12] = system: MDA-MB-231; test: Antiproliferative activity against human MDA-MB-231 cells assessed as inhibition of cell growth measured after 72 hrs by MTT assay; type: functional, cell-based; conditions: MDA-MB-231, 72 h
# [13] = system: HepG2; test: Induction of apoptosis in human HepG2 cells assessed as upregulation of Bax protein expression measured after 24 hrs by Western blot analysis; type: functional, cell-based; conditions: dose 7.5-30 nM, DDE = dose-dependent effect
# [14] = system: H22; test: Antivascular activity against mouse H22 cells allografted in ICR mouse assessed as reduction in tumor microvessel density by measuring CD31-positive cells at 20 mg/kg, iv administered qd measured after 21 days by immunohistochemistry analysis; type: functional, organism-based; conditions: time 21.0 day
# [15] = target: Histone deacetylase 1 (Homo sapiens, UniProt Q13547); test: Inhibition of HDAC1 in human HepG2 cells assessed as increase in level of acetyl histone H3substrate incubated for 24 hrs by chemiluminescence based Western blotting analysis; type: cell-based; conditions: dose 0.03-0.3 µM
# Chain of Histone deacetylase 1 (Q13547 whole entry): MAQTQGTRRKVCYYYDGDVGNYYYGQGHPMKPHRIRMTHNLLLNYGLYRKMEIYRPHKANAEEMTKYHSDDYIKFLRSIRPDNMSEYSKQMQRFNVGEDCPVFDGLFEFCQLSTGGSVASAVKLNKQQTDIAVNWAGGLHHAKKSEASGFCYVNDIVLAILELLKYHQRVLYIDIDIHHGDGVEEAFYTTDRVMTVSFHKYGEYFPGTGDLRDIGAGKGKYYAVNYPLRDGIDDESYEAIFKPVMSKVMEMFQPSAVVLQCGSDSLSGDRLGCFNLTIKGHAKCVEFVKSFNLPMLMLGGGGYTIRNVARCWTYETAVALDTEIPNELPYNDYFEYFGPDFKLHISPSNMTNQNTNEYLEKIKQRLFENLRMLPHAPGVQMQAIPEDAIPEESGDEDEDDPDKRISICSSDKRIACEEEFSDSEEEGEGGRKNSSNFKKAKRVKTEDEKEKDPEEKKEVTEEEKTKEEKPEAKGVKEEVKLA
# [16] = system: HepG2; test: Induction of apoptosis in human HepG2 cells assessed as downregulation of Bcl-xL protein expression measured after 24 hrs by Western blot analysis; type: functional, cell-based; conditions: dose 7.5-30 nM, DDE = dose-dependent effect
# [17] = Metabolic stability in mouse plasma assessed as compound remaining at 40 uM measured after 0.5 hrs by LC-MS/MS analysis (reference value: 100%); type: ADME, cell-free
# [18] = system: HepG2; test: Induction of apoptosis in human HepG2 cells assessed as early apoptotic cells at 15 nM incubated for 48 hrs by Annexin-V/PI-staining based flow cytometry (reference value: 4.61 +/- 0.46%); type: functional
# [19] = Metabolic stability in mouse plasma assessed as compound remaining at 40 uM measured after 5 hrs by LC-MS/MS analysis (reference value: 100%); type: ADME, cell-free
# [20] = system: H22; test: Antitumor activity against mouse H22 cells allografted in ICR mouse assessed as inhibition of tumor growth at 20 mg/kg, iv administered qd for 21 days measured after 12 days; type: functional, organism-based; conditions: time 21.0 day
# [21] = Toxicity in ICR mouse allografted with mouse H22 cells assessed as systolic blood pressure at 20 mg/kg, iv administered qd measured after 21 days; type: organism-based; conditions: in vivo, 504 h, time 21 day
# [22] = system: HepG2; test: Induction of cell cycle arrest in human HepG2 cells assessed as accumulation G2 phase at 30 nM incubated for 48 hrs by propidium iodide staining based flow cytometry analysis (reference value: 23.55 +/- 0.29%); type: functional
# [23] = system: PC-3; test: Induction of apoptosis in human PC-3 cells assessed as mitochondrial membrane potential loss by measuring decrease in […] fluorescence at 7.5 nM incubated for 48 hrs by JC1 staining based flow cytometry analysis (reference value: 93.48 +/- 0.15%); type: functional; parameters: scale not given: the % may be the effect or the level left
# [24] = Toxicity in ICR mouse allografted with mouse H22 cells assessed as pathological changes in spleen at 20 mg/kg, iv administered qd measured after 21 days by H and E staining based analysis; type: organism-based; conditions: in vivo, 504 h, time 21 day
# [25] = system: HepG2; test: Induction of G2/M phase cell cycle arrest in human HepG2 cells assessed as decrease in Cdc25c protein expression at 7.5 to 30 nM measured after 24 hrs by western blot analysis; type: functional, cell-based; conditions: dose 7.5-30 nM
# [26] = Metabolic stability in mouse liver microsomes assessed as metabolic bioavailability at 1 uM in presence of NADPH measured up to 60 mins by LC-MS/MS analysis; type: ADME, Microsome
# [27] = target: Histone deacetylase 2 (Homo sapiens, UniProt Q92769); test: Inhibition of HDAC2 in human HeLa cells using BOC-K(Ac)-AMC as substrate measured after 30 mins by fluorescence based microtiter plate reader assay; type: cell-based
# Chain of Histone deacetylase 2 (Q92769 whole entry): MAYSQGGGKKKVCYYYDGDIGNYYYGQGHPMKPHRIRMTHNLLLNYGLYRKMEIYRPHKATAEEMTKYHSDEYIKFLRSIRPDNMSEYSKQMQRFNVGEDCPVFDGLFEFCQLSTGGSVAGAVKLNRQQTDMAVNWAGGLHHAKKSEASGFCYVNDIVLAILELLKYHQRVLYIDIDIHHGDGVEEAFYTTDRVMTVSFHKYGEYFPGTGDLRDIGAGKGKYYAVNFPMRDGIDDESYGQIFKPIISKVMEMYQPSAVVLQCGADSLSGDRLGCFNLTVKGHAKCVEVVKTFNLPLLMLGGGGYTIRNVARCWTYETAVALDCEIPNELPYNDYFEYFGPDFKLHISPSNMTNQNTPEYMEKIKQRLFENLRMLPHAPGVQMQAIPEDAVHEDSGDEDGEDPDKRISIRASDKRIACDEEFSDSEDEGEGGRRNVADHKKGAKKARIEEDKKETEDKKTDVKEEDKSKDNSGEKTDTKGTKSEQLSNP
# [28] = Toxicity in ICR mouse allografted with mouse H22 cells assessed as diastolic blood pressure at 20 mg/kg, iv administered qd measured after 21 days; type: organism-based; conditions: in vivo, 504 h, time 21 day
# [29] = Metabolic stability in mouse assessed as hepatic clearance; type: ADME; conditions: 1 h, 1 µM, time < 60 min
# [30] = system: HepG2; test: Induction of ROS generation in human HepG2 cells assessed as increase in ROS level at 30 nM incubated for 48 hrs by DCF-DA staining-based flow cytometry analysis (reference value: 3.73%); type: functional
# [31] = target: T1, Tubulin (Homo sapiens); test: Inhibition of [3H]Colchicine binding to tubulin (unknown origin) at 1 uM measured after 2 hrs by scintillation counting method relative to control; type: protein-complex assay
# [32] = Toxicity in ICR mouse allografted with mouse H22 cells assessed as pathological changes in liver at 20 mg/kg, iv administered qd measured after 21 days by H and E staining based analysis; type: organism-based; conditions: in vivo, 504 h, time 21 day
# [33] = system: HepG2; test: Induction of apoptosis in human HepG2 cells assessed as late apoptotic cells at 15 nM incubated for 48 hrs by Annexin-V/PI-staining based flow cytometry (reference value: 2.53 +/- 0.34%); type: functional
smiles,measurement,setting,value
COc1ccc(CNC(=O)c2cc(F)ccc2N2CCOCC2)cc1/C=C/C(=O)NO,viability at 0.03 µM,[1],46.6%
same,Activity,[2],1.33%
same,Activity,[3],59.5%
same,viability at 0.015 µM,[4],65.7%
same,Activity,[5],Non-Toxic
same,Activity,[6],61.56%
same,inhibition,[7],Dde
same,inhibition,[8],63.4%
same,IC50 at 72 h,[9],0.013 µM
same,pIC50,[10],7.54
same,Activity,[11],Non-Toxic
same,pIC50,[12],7.52
same,Activity,[13],Dde
same,Activity,[14],Active
same,inhibition,[15],Active
same,Activity,[16],Dde
same,Stability,[17],59%
same,Activity,[18],26.84%
same,Stability,[19],16%
same,Activity,[20],Active
same,Activity,[21],Non-Toxic
same,Activity,[22],33.09%
same,Activity,[23],76.73%
same,Activity,[24],Non-Toxic
same,Activity,[25],Active
same,"Fh at 1 h, 1 µM",[26],51.6%
same,pIC50,[27],6.87
same,Activity,[28],Non-Toxic
same,CLH,[29],1.45 mL/min
same,Activity,[30],46.69%
same,inhibition,[31],52.3%
same,Activity,[32],Non-Toxic
same,Activity,[33],6.36%
